{
  "source": "patent US11607422B2",
  "about": "“Uttroside B and derivatives thereof as therapeutics for hepatocellular carcinoma” (Rajiv Gandhi Centre for Biotechnology, an Autonomous …, priority 2016, dated 2023)",
  "key": {"HeLa": {"test_system": "HeLa", "assay": "MTT cell viability assay in HeLa cells", "format": "cell-based", "settings": "72 h", "procedure": "(§1) FIG. 2A is a graph comparison of IC50 of Uttroside B in a panel of cancer cells of different origin. The cancer cell lines HeLa, A375, HepG2, MDA-MB-231, HL 60, A549 and HCT116 were treated with Uttroside B as indicated, incubated for 72 h and the cell viability was assessed by MTT assay. FIG. 2B is a graph showing dose dependent effect of Uttroside B in the liver cancer cell lines and in normal immortalized hepatocytes. The liver cancer cell lines HepG2, Hep3B, SKHEP-1, Huh-7 and normal hepatocytes (Chang liver), were treated with Uttroside B incubated for 72 h and the cell viability was assessed by MTT assay. FIG. 2C is a graph comparison of IC50 of Uttroside B with sorafenib. HepG2 cells were treated with Uttroside B as indicated, incubated for 72 h, and the cell viability was assessed by MTT assay. […] The clones developed were counted and plotted as a graph. Colony containing more than four cells was counted as one clone. […]\n(§2) MTT [3-(4,5-dimethylthiazole-2-yl)-2,5-diphenyltetrazolium bromide] assay is a standard colorimetric assay, suitable for analyzing proliferation, viability, and cytotoxicity. […] After overnight incubation, cells were treated with different concentrations of organic extracts (25-250 μg/ml) of S. nigrum and the isolated compound Uttroside B (250-1250 nM) for 72 h and cytotoxicity was measured. […]"}, "Swiss albino mice": {"test_system": "Swiss albino mice", "assay": "Acute toxicity study", "format": "in vivo", "procedure": "Toxicological evaluation:a. Animals: Six to eight-week-old female Swiss albino mice (18-22 g) were obtained from the Animal Research Facility of Rajiv Gandhi Centre for\nBiotechnology and the study was performed under protocols approved by Institutional Animal Ethical Committee of Rajiv Gandhi Centre for Biotechnology (IAEC No: 151 (a)/RUBY/2012) b. Acute toxicity study: Swiss albino mice were randomly divided into 3 groups of 6 animals each and were allowed to acclimatize for a week. Group I was taken as the control, which received only vehicle, while Group II and III received a single dose of Uttroside B dissolved in PBS (10 mg/kg and 50 mg/Kg body weight respectively). The mice were observed continuously for 1 h, for any gross behavioral changes and death, and then intermittently for the next 6 h and 24 h. The animals were observed frequently for the next 7 days from the day of treatment after which, the animals were euthanized in a CO2 chamber. The blood serum was collected for analyzing biochemical parameters of liver function, the abnormal values of which are indicative of toxicity. The liver was fixed in 10% buffered formalin and the thin cryostat sections (LEICA CM 1850UV Cryostat) were stained with haematoxylin and eosin for histopathological evaluation.^17"}, "A549": {"test_system": "A549", "assay": "MTT cell viability assay in A549 cells", "format": "cell-based", "settings": "72 h", "procedure": "as §1, §2"}, "HCT-116": {"test_system": "HCT-116", "settings": "literature ref 13; read-out: IC50, cytotoxicity against HCT-116 (colon cancer cells); cited from earlier work"}, "HepG2 cells": {"test_system": "HepG2 cells", "assay": "Clonogenic assay in HepG2 cells", "format": "cell-based, human", "settings": "72 h treatment, then 1 week", "procedure": "FIG. 2A is a graph comparison of IC50 of Uttroside B in a panel of cancer cells of different origin. The cancer cell lines HeLa, A375, HepG2, MDA-MB-231, HL 60, A549 and HCT116 were treated with Uttroside B as indicated, incubated for 72 h and the cell viability was assessed by MTT assay. FIG. 2B is a graph showing dose dependent effect of Uttroside B in the liver cancer cell lines and in normal immortalized hepatocytes. The liver cancer cell lines HepG2, Hep3B, SKHEP-1, Huh-7 and normal hepatocytes (Chang liver), were treated with Uttroside B incubated for 72 h and the cell viability was assessed by MTT assay. FIG. 2C is a graph comparison of IC50 of Uttroside B with sorafenib. HepG2 cells were treated with Uttroside B as indicated, incubated for 72 h, and the cell viability was assessed by MTT assay. FIG. 2D is an image of the morphological changes induced by Uttroside B in HepG2 cells. HepG2 cells were treated with Uttroside B as indicated and incubated for 72 h. FIG. 2E is an image showing Uttroside B inhibits the clonogenic potential of HepG2 cells. HepG2 cells were treated with different concentrations of Uttroside B for 72 h and the clonogenic assay was performed. […] The clones developed were counted and plotted as a graph. Colony containing more than four cells was counted as one clone. […]"}, "[1]": {"test_system": "hepatocellular carcinoma cells (HepG2, Hep3B, SKHep1, and Huh-7)", "assay": "MTT assay in different hepatocellular carcinoma cells", "format": "cell-based", "settings": "SKHep1, Huh-7, 72 h, read-out: IC50 in liver cancer cells", "procedure": "as §1, §2"}, "[2]": {"settings": "10 mg/kg and 50 mg/kg single dose"}},
  "data": [
    {"smiles": "C[C@H](CC[C@@]1(O)O[C@H]2C[C@H]3[C@@H]4CC[C@H]5C[C@@H](O[C@@H]6O[C@H](CO)[C@H](O[C@@H]7O[C@H](CO)[C@@H](O)[C@H](O[C@@H]8OC[C@@H](O)[C@H](O)[C@H]8O)[C@H]7O[C@@H]7O[C@H](CO)[C@@H](O)[C@H](O)[C@H]7O)[C@H](O)[C@H]6O)CC[C@]5(C)[C@H]4CC[C@]3(C)[C@H]2[C@@H]1C)CO[C@@H]1O[C@H](CO)[C@@H](O)[C@H](O)[C@H]1O", "note": "[Uttroside B]", "values": [
      {"measurement": "IC50", "setting": "HeLa", "result": 1.5, "unit": "µM"},
      {"measurement": "histopathological analysis of liver tissue, acute", "setting": "Swiss albino mice; 10 mg/kg and 50 mg/kg", "result": "did not manifest any morphological change characteristic of toxicity"},
      {"measurement": "behavior", "setting": "Swiss albino mice; [2]", "result": "did not exhibit any abnormal behavior"},
      {"measurement": "serum levels of AST, ALT and ALP", "setting": "Swiss albino mice; [2]", "result": "did not show any deviation in the serum levels"},
      {"measurement": "liver tissue changes at five times the treatment dose", "setting": "Swiss albino mice; 50 mg/kg, acute, reversible changes", "result": "micro vesicular fatty changes"},
      {"measurement": "gross adverse response (body weight, fur, behavior, food intake)", "setting": "Swiss albino mice; up to 5 times dose", "result": "failed to exhibit any signs of cumulative adverse response"},
      {"measurement": "IC50", "setting": "A549", "result": 1, "unit": "µM"},
      {"measurement": "IC50", "setting": "HCT-116", "result": 2.33, "unit": "µM"},
      {"measurement": "anti-clonogenic potential (colonies formed)", "setting": "HepG2 cells", "result": "drastic dose dependent reduction in both number and size of the colonies formed"},
      {"measurement": "IC50", "setting": "[1]", "result": "0.4 to 0.6", "unit": "µM"}
    ]}
  ]
}
